Laboratory results: patent US9565857B2, “Antimicrobial solutions” (Board of Regents, The University of Texas System, priority 2010, dated 2017)

Columns and labels:
[1] = test system: methicillin resistant Staphylococcus aureus (MRSA 4798); assay: modified Kuhn's biofilm model on silicone discs, lock solutions; type: cell-based; settings: quantitative culture of biofilm discs after 2 hrs in solution at 37° C.
Experimental: (§1) Biofilm was grown on sterile silicone discs following a modified Kuhn's method. Briefly, silicone discs were placed into a 24 well tissue culture plate and incubated overnight at 37° C. The plasma was then removed and replaced with 1 mL of 5.5×10^5 CFU/mL inoculum of various organisms. The plates were then incubated for an additional 24 hrs at 37° C. Inoculum was then removed and discs were washed shaking for 30 minutes in 0.9% sterile saline. After washing the discs were placed in 1 mL of various antimicrobial solutions and incubated at 37° C. for 2 hrs. The discs were then removed and placed in 5 mL of 0.9% sterile saline and sonicated to disrupt any remaining biofilm. The resulting solution was then quantitatively cultured by making serial dilutions in 0.9% sterile saline and plating on agar plates, TSA+5% sheep blood for all bacterial organisms and Sabouraud Dextrose Agar for yeasts. A total of 3-9 discs were used for both organisms and respective labs solutions (see Tables 4-6).
(§2) Statistical methods: Wilcoxon rank sum tests were used for comparisons. All the analyses were performed using SAS version 9.1 (SAS Institute Inc., Cary, N.C.).

[2] = test system: Candida glabrata; assay: as above; type: cell-based; settings: quantitative culture of biofilm discs after 2 hrs in solution at 37° C.
Experimental: as §1, §2

[3] = test system: MDR-Pseudomonas aeruginosa (PS 4689); assay: as above; type: cell-based; settings: quantitative culture of biofilm discs after 2 hrs in solution at 37° C.
Experimental: as §1, §2

[4] = test system: MRSA; assay: modified quantitative germicidal spray / quantitative carrier test, Example 1; type: cell-based, Staphylococcus aureus; settings: criterion: complete kill on 9 of 10 carriers, positive carrier at least 99% reduction; one minute
Experimental: Sterile 50 mL centrifuge tubes, pre-filled with 20 mL of desired neutralizer.
Use 3″×1″ sterile glass containers. Place each carrier into a sterile Petri plastic dish.
Inoculate each carrier with 10 μL of bacterial or fungal suspension. If a carrier has a frosted end, inoculate the non-frosted end.
Using a sterile inoculating needle, spread the inoculum into an approximate 1 cm×1 cm square.
Dry the carriers in a 35° C. incubator for 30 min (lids cracked) or 40 min (lids closed).
Spray each carrier as specified by the test product. Ensure the inoculated area is thoroughly covered. Because of the time it takes to transfer the carrier into the neutralizer, a 30-second (or longer) interval time is recommended.
After the specified exposure time, transfer each carrier to a pre-filled centrifuge tube using forceps. Be sure to pick up the carrier by the non-inoculated end and place the inoculated end into the neutralizer.
Immediately close the cap and invert the tube several times (10 should be sufficient) so the neutralizer coats the entire carrier.
From this point on, follow the enumeration procedure as specified in the Quantitative Carrier Test SOP. […]
The aim of these sets of experiments is to compare the activity of these various solutions on a 10-set slid carriers of MRSA using standard EPA quantitate carrier test in 25-50% calf serum.

In the case of `OCC(O)CO` [50% Glycerol alone, Glycerol], the Mean [1] was 1.0 × 10^7, the “Median (range)” value [1] was 1.0 × 10^6 and the Mean [2] was 6.2 × 10^3. For the same compound, the “Median (range)” value [2] was 1.1 × 10^3, the Mean [3] was 1.0 × 10^6 and the “Median (range)” value [3] was 1.0 × 10^6.
In the case of `N=C(NCCCCCCNC(=N)NC(=N)Nc1ccc(Cl)cc1)NC(=N)Nc1ccc(Cl)cc1` [0.06% CHG alone, 1,1′-hexamethylene-bis-[5-(4-chlorophenyl)-biguanide]], the “test of being highly effective against MRSA (passed/failed)” value [4] was “failed the test”.
